# Results published in patent publication US12662491B2 (Redona Therapeutics, Inc., priority 2020, dated 2026).
# Molecular target: T1, Zcchc11 enzyme (Homo sapiens, UniProt Q5TAX3)
# T1 construct: made in house; host or cells: HEK293 cells (Zcchc11); E. coli Rosetta II (LIN28A)
# T1 sequence (Q5TAX3 212-1420): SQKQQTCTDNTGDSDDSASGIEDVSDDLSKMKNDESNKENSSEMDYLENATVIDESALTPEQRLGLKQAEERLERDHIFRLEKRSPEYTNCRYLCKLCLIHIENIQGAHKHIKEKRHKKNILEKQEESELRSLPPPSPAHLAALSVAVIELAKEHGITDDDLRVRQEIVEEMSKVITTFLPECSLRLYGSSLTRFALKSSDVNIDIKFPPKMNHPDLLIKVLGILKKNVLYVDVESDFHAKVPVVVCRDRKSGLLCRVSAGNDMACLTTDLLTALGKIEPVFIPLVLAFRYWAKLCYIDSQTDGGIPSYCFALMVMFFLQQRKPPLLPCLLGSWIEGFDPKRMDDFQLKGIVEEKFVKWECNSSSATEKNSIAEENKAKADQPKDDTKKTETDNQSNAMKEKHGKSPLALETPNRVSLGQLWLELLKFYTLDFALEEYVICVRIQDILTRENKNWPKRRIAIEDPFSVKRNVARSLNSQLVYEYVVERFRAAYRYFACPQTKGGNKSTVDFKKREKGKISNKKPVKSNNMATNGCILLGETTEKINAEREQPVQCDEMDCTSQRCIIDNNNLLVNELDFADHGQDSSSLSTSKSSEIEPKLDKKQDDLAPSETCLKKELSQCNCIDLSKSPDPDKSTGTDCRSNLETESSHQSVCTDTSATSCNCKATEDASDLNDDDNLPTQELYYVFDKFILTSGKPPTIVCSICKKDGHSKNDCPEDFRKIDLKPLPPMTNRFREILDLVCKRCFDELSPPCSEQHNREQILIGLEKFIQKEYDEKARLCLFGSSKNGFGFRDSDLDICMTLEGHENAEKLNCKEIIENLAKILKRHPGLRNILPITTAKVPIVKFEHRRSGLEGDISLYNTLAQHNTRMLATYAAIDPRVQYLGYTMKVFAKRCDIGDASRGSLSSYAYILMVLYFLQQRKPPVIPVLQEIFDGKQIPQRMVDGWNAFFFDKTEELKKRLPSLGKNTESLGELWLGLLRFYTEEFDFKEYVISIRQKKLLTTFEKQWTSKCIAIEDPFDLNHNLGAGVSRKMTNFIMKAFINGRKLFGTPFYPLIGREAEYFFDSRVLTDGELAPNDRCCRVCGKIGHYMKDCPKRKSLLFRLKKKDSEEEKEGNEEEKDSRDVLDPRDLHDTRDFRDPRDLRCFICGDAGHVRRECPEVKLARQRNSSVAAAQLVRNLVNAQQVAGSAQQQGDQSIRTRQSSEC
# Assay: TUTase assay (Zcchc11 assay, Lin28a-dependent polyuridylation of pre-let-7)
# Type: biochemical
# Details: Lin28a-dependent Zcchc11 (Z11) TUTase assay; read-out: Potency Lin28a-dep Z11 IC50
# How it was run: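 HEK293-expressed human Zcchc11 (residues 212-1420, 0.2 nM) with 10 nM LIN28A and 2 nM 5′-fluorescein pre-let-7, preincubated 30 min at room temperature, pH 7.3. Started with 5 uM UTP; poly(U) tails quenched by 3′-rhodamine A20 probe, read kinetically. IC50 from early-rate four-parameter fit; no-UTP wells define 0%.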
row,IC50,Structure (SMILES)
1,≤ 1000 nM,O=C(O)c1cn(-c2cncnc2)c2cc(N3CCC[C@@H]3COc3ncccc3Cl)c(Cl)cc2c1=O [Example 497]
2,≤ 1000 nM,"O=C(O)c1cn(-c2ccnnc2)c2cc(N3CCC[C@@H]3COc3ncccc3Cl)c(Cl)cc2c1=O [Example 504, 6-chloro-7-[(2R)-2-{[(3-chloropyridin-2-yl)oxy]methyl}pyrrolidin-1-yl]-4-oxo-1-(pyridazin-4-yl)-1,4-dihydroquinoline-3-carboxylic acid]"
3,≤ 1000 nM,"Nc1ccc(-n2cc(C(=O)O)c(=O)c3cc(Br)c(N4CCC[C@@H]4COc4ncccc4Cl)cc32)cn1 [Example 509, 1-(6-aminopyridin-3-yl)-6-bromo-7-[(2R)-2-{[(3-chloropyridin-2-yl)oxy]methyl}pyrrolidin-1-yl]-4-oxo-1,4-dihydroquinoline-3-carboxylic acid]"
4,≤ 1000 nM,"CN(C)C1CN(c2ccc(-n3cc(C(=O)O)c(=O)c4cc(F)c(N5CCC[C@@H]5COc5ncccc5Cl)cc43)cn2)C1 [Example 510, (R)-7-(2-(((3-chloropyridin-2-yl)oxy)methyl)pyrrolidin-1-yl)-1-(6-(3-(dimethylamino)azetidin-1-yl)pyridin-3-yl)-6-fluoro-4-oxo-1,4-dihydroquinoline-3-carboxylic acid]"
5,≤ 1000 nM,"O=C(O)c1cn(-c2cnccn2)c2cc(N3CCC[C@@H]3COc3ncccc3Cl)c(Br)cc2c1=O [Example 511, (R)-6-bromo-7-(2-(((3-chloropyridin-2-yl)oxy)methyl)pyrrolidin-1-yl)-4-oxo-1-(pyrazin-2-yl)-1,4-dihydroquinoline-3-carboxylic acid]"
6,≤ 1000 nM,"N#Cc1cc2c(=O)c(C(=O)O)cn(-c3ccc(N)nc3)c2cc1N1CCC[C@@H]1COc1ncccc1Cl [Example 513, (R)-1-(6-aminopyridin-3-yl)-7-(2-(((3-chloropyridin-2-yl)oxy)methyl)pyrrolidin-1-yl)-6-cyano-4-oxo-1,4-dihydroquinoline-3-carboxylic acid]"
7,≤ 1000 nM,"O=C(O)c1cn(-c2ccc(N3CCC3)nc2)c2cc(N3CCC[C@H]3COc3ncccc3Cl)c(Cl)cc2c1=O [Example 516, (S)-1-(6-(azetidin-1-yl)pyridin-3-yl)-6-chloro-7-(2-(((3-chloropyridin-2-yl)oxy)methyl)pyrrolidin-1-yl)-4-oxo-1,4-dihydroquinoline-3-carboxylic acid]"
8,≤ 1000 nM,"CN(C)C1CN(c2ccc(-n3cc(C(=O)O)c(=O)c4cc(Cl)c(N5CCC[C@H]5COc5ncccc5Cl)cc43)cn2)C1 [Example 517, (S)-6-chloro-7-(2-(((3-chloropyridin-2-yl)oxy)methyl)pyrrolidin-1-yl)-1-(6-(3-(dimethylamino)azetidin-1-yl)pyridin-3-yl)-4-oxo-1,4-dihydroquinoline-3-carboxylic acid]"

# The next lines start with the compound.
row,Structure (SMILES),IC50
1,"O=C(O)c1cn(-c2ccc(N3CC4(CNC4)C3)nc2)c2cc(N3CCC[C@@H]3COc3ncccc3Cl)c(Cl)cc2c1=O [Example 496, (R)-1-(6-(2,6-diazaspiro[3.3]heptan-2-yl)pyridin-3-yl)-6-chloro-7-(2-(((3-chloropyridin-2-yl)oxy)methyl)pyrrolidin-1-yl)-4-oxo-1,4-dihydroquinoline-3-carboxylic acid]",≤ 1000 nM
2,"O=C(O)c1cn(-c2cccnn2)c2cc(N3CCC[C@@H]3COc3ncccc3Cl)c(Cl)cc2c1=O [Example 498, (R)-6-chloro-7-(2-(((3-chloropyridin-2-yl)oxy)methyl)pyrrolidin-1-yl)-4-oxo-1-(pyridazin-3-yl)-1,4-dihydroquinoline-3-carboxylic acid]",≤ 1000 nM
3,"O=C(O)c1cn(-c2ccccn2)c2cc(N3CCC[C@@H]3COc3ncccc3Cl)c(Cl)cc2c1=O [Example 499, (R)-6-chloro-7-(2-(((3-chloropyridin-2-yl)oxy)methyl)pyrrolidin-1-yl)-4-oxo-1-(pyridin-2-yl)-1,4-dihydroquinoline-3-carboxylic acid]",≤ 1000 nM
4,"O=C(O)c1cn(-c2ncccn2)c2cc(N3CCC[C@@H]3COc3ncccc3Cl)c(Cl)cc2c1=O [Example 500, (R)-6-chloro-7-(2-(((3-chloropyridin-2-yl)oxy)methyl)pyrrolidin-1-yl)-4-oxo-1-(pyrimidin-2-yl)-1,4-dihydroquinoline-3-carboxylic acid]",≤ 1000 nM
5,"Cn1ccnc1OC[C@H]1CCCN1c1cc2c(cc1Cl)c(=O)c(C(=O)O)cn2-c1ccc(N2CCC2)nc1 [Example 501, (R)-1-(6-(azetidin-1-yl)pyridin-3-yl)-6-chloro-7-(2-(((1-methyl-1H-imidazol-2-yl)oxy)methyl)pyrrolidin-1-yl)-4-oxo-1,4-dihydroquinoline-3-carboxylic acid]",≤ 1000 nM
6,"CNCCN1CCC(n2cc(C(=O)O)c(=O)c3cc(Cl)c(N4CCC[C@@H]4COc4ncccc4Cl)cc32)CC1 [Example 502, (R)-6-chloro-7-(2-(((3-chloropyridin-2-yl)oxy)methyl)pyrrolidin-1-yl)-1-(1-(2-(methyl-amino)ethyl)piperidin-4-yl)-4-oxo-1,4-dihydroquinoline-3-carboxylic acid]",1000 to 10000 nM
7,"O=C(O)c1cn(-c2cnc(OCc3ccccc3)cn2)c2cc(N3CCC[C@@H]3COc3ncccc3Cl)c(Cl)cc2c1=O [Example 503, (R)-1-(5-(benzyloxy)pyrazin-2-yl)-6-chloro-7-(2-(((3-chloropyridin-2-yl)oxy)methyl)pyrrolidin-1-yl)-4-oxo-1,4-dihydroquinoline-3-carboxylic acid]",1000 to 10000 nM
8,"O=C(O)c1cn(-c2cc3cc[nH]c3cc2F)c2cc(N3CCC[C@@H]3COc3ncccc3Cl)c(Cl)cc2c1=O [Example 505, (R)-6-chloro-7-(2-(((3-chloropyridin-2-yl)oxy)methyl)pyrrolidin-1-yl)-1-(6-fluoro-1H-indol-5-yl)-4-oxo-1,4-dihydroquinoline-3-carboxylic acid]",≤ 1000 nM
9,"CNc1cnc(-n2cc(C(=O)O)c(=O)c3cc(Cl)c(N4CCC[C@@H]4COc4ncccc4Cl)cc32)cn1 [Example 506, (R)-6-chloro-7-(2-(((3-chloropyridin-2-yl)oxy)methyl)pyrrolidin-1-yl)-1-(5-(methylamino)pyrazin-2-yl)-4-oxo-1,4-dihydroquinoline-3-carboxylic acid]",≤ 1000 nM
10,"O=C(O)c1cn(-c2ccc(N3CC(N4CCC4)C3)nc2)c2cc(N3CCC[C@@H]3COc3ncccc3Cl)c(Cl)cc2c1=O [Example 507, (R)-1-(6-([1,3′-biazetidin]-1′-yl)pyridin-3-yl)-6-chloro-7-(2-(((3-chloropyridin-2-yl)oxy)methyl)pyrrolidin-1-yl)-4-oxo-1,4-dihydroquinoline-3-carboxylic acid]",≤ 1000 nM
11,"CN1CCn2nc(-n3cc(C(=O)O)c(=O)c4cc(Cl)c(N5CCC[C@@H]5COc5ncccc5Cl)cc43)cc2C1 [Example 508, (R)-6-chloro-7-(2-(((3-chloropyridin-2-yl)oxy)methyl)pyrrolidin-1-yl)-1-(5-methyl-4,5,6,7-tetrahydropyrazolo [1,5-a]pyrazin-2-yl)-4-oxo-1,4-dihydroquinoline-3-carboxylic acid]",≤ 1000 nM
12,"COc1cc2c(=O)c(C(=O)O)cn(-c3cnccn3)c2cc1N1CCC[C@@H]1COc1ncccc1Cl [Example 512, (R)-7-(2-(((3-chloropyridin-2-yl)oxy)methyl)pyrrolidin-1-yl)-6-methoxy-4-oxo-1-(pyrazin-2-yl)-1,4-dihydroquinoline-3-carboxylic acid]",> 50000 nM
13,"O=C(O)c1cn(-c2cnn3c2CNCC3)c2cc(N3CCC[C@@H]3COc3ncccc3Cl)c(Cl)cc2c1=O [Example 514, (R)-6-chloro-7-(2-(((3-chloropyridin-2-yl)oxy)methyl)pyrrolidin-1-yl)-4-oxo-1-(4,5,6,7-tetrahydropyrazolo [1,5-a]pyrazin-3-yl)-1,4-dihydroquinoline-3-carboxylic acid]",≤ 1000 nM
14,"O=C(O)c1cn(-c2cc3n(n2)CCNC3)c2cc(N3CCC[C@@H]3COc3ncccc3Cl)c(Cl)cc2c1=O [Example 515, (R)-6-chloro-7-(2-(((3-chloropyridin-2-yl)oxy)methyl)pyrrolidin-1-yl)-4-oxo-1-(4,5,6,7-tetrahydropyrazolo [1,5-a]pyrazin-2-yl)-1,4-dihydroquinoline-3-carboxylic acid]",≤ 1000 nM
